# From patent publication US20220128542A1, “TREATMENT EFFICIENCY EVALUATION” (TX MEDIC AB, priority 2019, published 2022)
# Where two headings read alike, the source gives them in different places.
# Test system: brain of rats subjected to severe traumatic brain injury (sTBI)
# [1] = 1 mg/kg, 2 days post-TBI, of 221 genes
# [2] = 1 mg/kg, 7 days post-TBI, of 2741 genes
# [3] = 5 mg/kg, 2 days post-TBI, of 221 genes
# [4] = 5 mg/kg, 7 days post-TBI, of 2741 genes
# [5] = 15 mg/kg, 2 days post-TBI, of 221 genes
# [6] = 15 mg/kg, 7 days post-TBI, of 2741 genes
# [7] = 3 repeated doses of 15 mg/kg, 7 days post-TBI, of 2741 genes
# [8] = DS 1 mg/kg, day 7 following TBI, relative to TBI model
# [9] = DS 5 mg/kg, day 7 following TBI, relative to TBI model
# [10] = DS 15 mg/kg, day 7 following TBI, relative to TBI model
# Protocol: As a starting point, a list and expression levels of molecules differentially regulated by dextran sulfate relative to a TBI model for the three different doses (1 mg/kg, 5 mg/kg and 15 mg/kg) of dextran sulfate at day 7 following TBI were established.
# Male Wistar rats of 300-350 g body weight were fed with standard laboratory diet and water ad libitum in a controlled environment. As the anesthetic mixture, the animals received 35 mg/kg b.w. ketamine and 0.25 mg/kg body weight midazolam by i.p. injection. Severe traumatic brain injury (sTBI) was induced by dropping a 450 g weight from 2 m height on to the rat head that had been protected by a metal disk previously fixed on the skull, according to the “weight drop” impact acceleration model (Marmarou et al., J Neurosurg. 1994; 80: 291-300). […] At the end of each period of treatment, rats were anesthetized again and then immediately sacrificed.
# LMW-DS (Tikomed AB) was provided at a stock concentration of 20 mg/ml and was kept in a temperature-monitored refrigerator at 4° C. LMW-DS aliquots were diluted to the appropriate dosing concentration in sterile saline prior to delivery of a single subcutaneous injection.
# Three doses of LMW-DS were administered subcutaneously 30 minutes post-TBI. The animals were sacrificed at 2 days post-TBI. The animals were divided into the following subgroups:
# Three doses of LMW-DS were administered subcutaneously 30 minutes post-TBI. The animals were sacrificed at 7 days post-TBI. The animals were divided into the following subgroups:
# An in vivo craniectomy was performed on all animals during anesthesia. After carefully removing the rat's skull, the brain was exposed and removed with a surgical spatula and quickly dropped in RNALater and preserved at 4° C. for further processing.
# The arrays used were the Agilent Rat expression arrays.
# Statistical analysis was performed to quantitate the effect of sTBI on the brain in this model. The follow-on analyses looked at the effects of LMW-DS in this model using different iterations and algorithms. Statistical analysis was carried out using the Metaboanalyst software package. Gene expression changes of 10% with a p<0.05 were regarded as significant.
substance,measurement,setting,value
sodium salt of dextran sulfate [LMW-DS],genes with altered TBI-specific expression,"1 mg/kg within 30 min after injury, 2 days of sTBI",372 genes
same,genes with altered TBI-specific expression,"1 mg/kg within 30 min after injury, 7 days of sTBI",3602 genes
same,genes differing from healthy controls,"1 mg/kg, 2 days after sTBI",209 genes
same,TBI-deregulated genes remaining deregulated relative to healthy controls,[1],22 genes
same,share of TBI-deregulated genes remaining deregulated,[1],10%
same,genes differing from healthy controls,"1 mg/kg, 7 days after sTBI",282 genes
same,TBI-deregulated genes remaining deregulated relative to healthy controls,[2],124 genes
same,share of TBI-deregulated genes remaining deregulated,[2],4.5%
same,genes with altered TBI-specific expression,"5 mg/kg within 30 min after TBI, 2 days of sTBI",702 genes
same,genes with altered TBI-specific expression,"5 mg/kg within 30 min after TBI, 7 days of sTBI",3852 genes
same,genes differing from healthy controls,"5 mg/kg, 2 days after sTBI",258 genes
same,TBI-deregulated genes remaining deregulated relative to healthy controls,[3],51 genes
same,share of TBI-deregulated genes remaining deregulated,[3],23%
same,genes differing from healthy controls,"5 mg/kg, 7 days after sTBI",398 genes
same,TBI-deregulated genes remaining deregulated relative to healthy controls,[4],169 genes
same,share of TBI-deregulated genes remaining deregulated,[4],6.1%
same,genes with altered TBI-specific expression,"15 mg/kg within 30 min after TBI, 2 days of sTBI",247 genes
same,genes with altered TBI-specific expression,"15 mg/kg within 30 min after TBI, 7 days of sTBI",3901 genes
same,genes differing from healthy controls,"15 mg/kg, 2 days after sTBI",47 genes
same,TBI-deregulated genes remaining deregulated relative to healthy controls,[5],19 genes
same,share of TBI-deregulated genes remaining deregulated,[5],8.5%
same,genes differing from healthy controls,"15 mg/kg, 7 days after sTBI",158 genes
same,TBI-deregulated genes remaining deregulated relative to healthy controls,[6],85 genes
same,share of TBI-deregulated genes remaining deregulated,[6],3.1%
same,genes differing from healthy controls,"3 repeated doses of 15 mg/kg, 7 days after sTBI",234 genes
same,TBI-deregulated genes remaining deregulated relative to healthy controls,[7],116 genes
same,share of TBI-deregulated genes remaining deregulated,[7],4.25%
same,AFP fold change (FC),[8],−1.439
same,ATP2A3 fold change (FC),[8],−1.284
same,ATP8A1 fold change (FC),[8],1.280
same,BDNF fold change (FC),[8],1.635
same,CRH fold change (FC),[8],1.253
same,FGF1 fold change (FC),[8],−1.366
same,HBEGF fold change (FC),[8],1.235
same,IL-17B fold change (FC),[8],1.863
same,KITLG fold change (FC),[8],−1.251
same,LDLR fold change (FC),[8],1.364
same,NOG fold change (FC),[8],1.304
same,PF4 fold change (FC),[8],−1.453
same,SLC1A4 fold change (FC),[8],1.498
same,SLC7A11 fold change (FC),[8],1.490
same,SLC16A7 fold change (FC),[8],1.493
same,SLC29A1 fold change (FC),[8],−1.370
same,SLC40A1 fold change (FC),[8],−1.345
same,TNFSF15 fold change (FC),[8],3.878
same,TSLP fold change (FC),[8],1.389
same,TTR fold change (FC),[8],−2.531
same,VAV3 fold change (FC),[8],−1.505
same,AFP fold change (FC),[9],−1.280
same,ATP2A3 fold change (FC),[9],−1.205
same,ATP8A1 fold change (FC),[9],1.223
same,BDNF fold change (FC),[9],1.708
same,CRH fold change (FC),[9],1.316
same,FGF1 fold change (FC),[9],−1.382
same,HBEGF fold change (FC),[9],1.274
same,IL-17B fold change (FC),[9],1.765
same,KITLG fold change (FC),[9],−1.274
same,LDLR fold change (FC),[9],1.291
same,NOG fold change (FC),[9],1.305
same,PF4 fold change (FC),[9],−1.331
same,SLC1A4 fold change (FC),[9],1.531
same,SLC4A1 fold change (FC),[9],−1.442
same,SLC7A11 fold change (FC),[9],1.469
same,SLC16A7 fold change (FC),[9],1.441
same,SLC29A1 fold change (FC),[9],−1.377
same,SLC40A1 fold change (FC),[9],−1.338
same,TNFSF15 fold change (FC),[9],4.302
same,TSLP fold change (FC),[9],1.446
same,TTR fold change (FC),[9],−1.915
same,VAV3 fold change (FC),[9],−1.418
same,AFP fold change (FC),[10],−1.208
same,ATP2A3 fold change (FC),[10],−1.216
same,ATP8A1 fold change (FC),[10],1.212
same,BDNF fold change (FC),[10],1.557
same,CRH fold change (FC),[10],1.293
same,FGF1 fold change (FC),[10],−1.213
same,GOSR1 fold change (FC),[10],1.233
same,HBEGF fold change (FC),[10],1.250
same,IL36RN fold change (FC),[10],1.284
same,IL-17B fold change (FC),[10],1.729
same,KITLG fold change (FC),[10],−1.261
same,LDLR fold change (FC),[10],1.212
same,NOG fold change (FC),[10],1.281
same,PF4 fold change (FC),[10],−1.244
same,SLC1A4 fold change (FC),[10],1.518
same,SLC4A1 fold change (FC),[10],−1.213
same,SLC7A11 fold change (FC),[10],1.477
same,SLC16A7 fold change (FC),[10],1.408
same,SLC29A1 fold change (FC),[10],−1.316
same,SLC40A1 fold change (FC),[10],−1.348
same,TNFSF15 fold change (FC),[10],3.939
same,TSLP fold change (FC),[10],1.322
same,TTR fold change (FC),[10],−2.179
same,VAV3 fold change (FC),[10],−1.318
